PubChem BioAssay (NCI)
Where “and” joins values, the source holds several entries; their conditions need not be identical. Equal entries are not always repeated.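 Exposure lasted 48 hours, with cells grown in 96-well plates and compounds tested at five concentrations. The concentration for 50% growth inhibition is given as GI50. TGI denotes the concentration required for complete inhibition of growth.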

Legend:
Assay in all cases: NCI tumour cell line growth inhibition, 48 h
[1] = tested on: HOP-18 NSCLC
[2] = tested on: RXF 393 renal
[3] = tested on: RXF-631 renal
[4] = tested on: DMS 114 small cell lung
[5] = tested on: HS 578T breast
[6] = tested on: ACHN renal
[7] = tested on: DMS 273 small cell lung
[8] = tested on: LXFL 529 NSCLC
[9] = tested on: MDA-N
[10] = tested on: DLD-1 colon
[11] = tested on: UACC-257 melanoma
[12] = tested on: P388/ADR leukemia
[13] = tested on: P388 leukemia
[14] = tested on: DU-145 prostate
[15] = tested on: HT29 colon
[16] = tested on: SNB-75 CNS
[17] = tested on: SK-MEL-28 melanoma
[18] = tested on: KM20L2 colon
[19] = tested on: SNB-78 CNS
[20] = tested on: XF 498 CNS
[21] = tested on: SN12K1 renal
[22] = tested on: SR leukemia
[23] = tested on: NCI-H460 lung
[24] = tested on: NCI-H23 lung
[25] = tested on: NCI-H522 lung
[26] = tested on: U251 CNS
[27] = tested on: UO-31 renal
[28] = tested on: EKVX NSCLC
[29] = tested on: SK-MEL-5 melanoma
[30] = tested on: MOLT-4 leukemia
[31] = tested on: LOX IMVI melanoma
[32] = tested on: SK-OV-3 ovarian
[33] = tested on: SNB-19 CNS
[34] = tested on: CCRF-CEM leukemia
[35] = tested on: RPMI-8226 leukemia
[36] = tested on: OVCAR-4 ovarian
[37] = tested on: HL-60(TB) leukemia
[38] = tested on: A498 renal
[39] = tested on: HOP-62 NSCLC
[40] = tested on: SF-295 CNS
[41] = tested on: MALME-3M melanoma
[42] = tested on: NCI-H226 lung
[43] = tested on: OVCAR-3 ovarian
[44] = tested on: SN12C renal
[45] = tested on: UACC-62 melanoma
[46] = tested on: CAKI-1 renal
[47] = tested on: SF-268 CNS
[48] = tested on: HCT-15 colon
[49] = tested on: M19-MEL melanoma
[50] = tested on: SF-539 CNS
[51] = tested on: OVCAR-5 ovarian
[52] = tested on: SK-MEL-2 melanoma
[53] = tested on: MCF7 breast
[54] = tested on: K-562 leukemia
[55] = tested on: NCI/ADR-RES ovarian
[56] = tested on: A549 NSCLC
[57] = tested on: COLO 205 colon
[58] = tested on: OVCAR-8 ovarian
[59] = tested on: SW-620 colon
[60] = tested on: KM12 colon
[61] = tested on: IGROV1 ovarian
[62] = tested on: HCC-2998 colon
[63] = tested on: HCT-116 colon
[64] = tested on: HOP-92 NSCLC

Q: `CC[C@]1(O)C[C@H]2CN(CCc3c([nH]c4ccccc34)[C@@](C(=O)OC)(c3cc4c(cc3OC)N(C)[C@H]3[C@@](O)(C(=O)OC)[C@H](OC(C)=O)[C@]5(CC)C=CCN6CC[C@]43[C@@H]65)C2)C1` was tested. Which TGI [1] did it give?
A: 1.51 µM

Q: What about the GI50 [2] of the same compound?
A: 0.00135 µM

Q: What about the TGI [3] of the same compound?
A: 1.03 µM

Q: And the TGI [4]?
A: 0.00581 µM

Q: What about the TGI [5] of the same compound?
A: 0.24 µM and 1.37 µM

Q: And the GI50 [6]?
A: 0.0527 nM

Q: And the TGI [7]?
A: 0.123 µM

Q: What about the TGI [8] of the same compound?
A: 1.06 µM

Q: And the TGI [9]?
A: 0.00025 µM and 0.000771 µM

Q: What about the TGI [10] of the same compound?
A: 2.5 µM

Q: What about the TGI [11] of the same compound?
A: 1.89 µM and 2.5 µM and 16.1 µM

Q: What about the TGI [12] of the same compound?
A: 0.931 µM

Q: And the TGI [13]?
A: 0.139 µM

Q: What about the GI50 [14] of the same compound?
A: 7.48 pM

Q: And the TGI [15]?
A: 0.124 µM

Q: And the TGI [16]?
A: 0.025 µM and 0.0807 µM

Q: What about the GI50 [17] of the same compound?
A: 7.41 pM

Q: What about the GI50 [18] of the same compound?
A: 0.025 nM

Q: And the TGI [18]?
A: 0.00183 µM

Q: What about the TGI [19] of the same compound?
A: 1.7 µM

Q: What about the TGI [20] of the same compound?
A: 0.0333 µM

Q: What about the TGI [21] of the same compound?
A: 0.0027 µM

Q: And the GI50 [22]?
A: < 2.5 pM

Q: For `CSCC(CO)NC(=O)/C=C/c1c(C)[nH]c(=O)[nH]c1=O` (stereo not given), which TGI [23] is on record?
A: > 875 µM

Q: And the TGI [24]?
A: > 875 µM

Q: What about the TGI [1] of the same compound?
A: > 875 µM

Q: And the TGI [25]?
A: 499 µM

Q: What about the TGI [2] of the same compound?
A: > 875 µM

Q: And the TGI [26]?
A: > 875 µM

Q: And the TGI [27]?
A: > 875 µM

Q: What about the TGI [28] of the same compound?
A: 872 µM

Q: What about the TGI [29] of the same compound?
A: > 875 µM

Q: And the TGI [30]?
A: > 875 µM

Q: And the TGI [31]?
A: > 875 µM

Q: And the TGI [4]?
A: > 801 µM

Q: What about the TGI [32] of the same compound?
A: > 875 µM

Q: What about the TGI [33] of the same compound?
A: > 875 µM

Q: And the TGI [34]?
A: > 875 µM

Q: What about the TGI [35] of the same compound?
A: > 875 µM

Q: And the TGI [36]?
A: 389 µM

Q: And the TGI [7]?
A: > 875 µM

Q: And the TGI [37]?
A: > 875 µM

Q: And the TGI [38]?
A: > 875 µM

Q: And the TGI [10]?
A: > 875 µM

Q: What about the TGI [11] of the same compound?
A: > 875 µM

Q: What about the TGI [12] of the same compound?
A: > 875 µM

Q: And the TGI [39]?
A: > 875 µM

Q: And the TGI [40]?
A: > 875 µM

Q: And the TGI [41]?
A: > 875 µM

Q: And the TGI [42]?
A: > 875 µM

Q: What about the TGI [43] of the same compound?
A: 444 µM

Q: And the TGI [44]?
A: > 875 µM

Q: And the TGI [13]?
A: > 875 µM

Q: And the TGI [45]?
A: > 875 µM

Q: What about the TGI [15] of the same compound?
A: > 875 µM

Q: What about the TGI [46] of the same compound?
A: > 87.5 µM

Q: What about the TGI [47] of the same compound?
A: > 875 µM

Q: And the TGI [48]?
A: > 875 µM

Q: What about the TGI [49] of the same compound?
A: > 875 µM

Q: What about the TGI [16] of the same compound?
A: > 875 µM

Q: What about the TGI [50] of the same compound?
A: > 875 µM

Q: And the TGI [51]?
A: > 875 µM

Q: And the TGI [52]?
A: > 875 µM

Q: And the TGI [17]?
A: > 875 µM

Q: And the TGI [18]?
A: > 875 µM

Q: And the TGI [53]?
A: > 609 µM

Q: What about the TGI [19] of the same compound?
A: > 875 µM

Q: And the TGI [54]?
A: > 875 µM

Q: What about the TGI [55] of the same compound?
A: > 875 µM

Q: And the TGI [20]?
A: 815 µM

Q: What about the TGI [56] of the same compound?
A: > 875 µM

Q: What about the TGI [57] of the same compound?
A: > 775 µM

Q: What about the TGI [58] of the same compound?
A: > 348 µM

Q: What about the TGI [59] of the same compound?
A: > 492 µM

Q: And the TGI [60]?
A: > 875 µM

Q: What about the TGI [21] of the same compound?
A: > 875 µM

Q: What about the TGI [61] of the same compound?
A: > 875 µM

Q: What about the TGI [62] of the same compound?
A: 479 µM

Q: What about the TGI [63] of the same compound?
A: > 875 µM

Q: What about the TGI [64] of the same compound?
A: 742 µM
